Measurements taken from PubChem BioAssay (NCI).
Values joined by “and” are separate entries in the source; they are usually repeats but may differ in a detail not shown here. Equal values may be shown once.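 48-hour exposure; five concentrations; linearly interpolated endpoints. Abbreviation: GI50, concentration required for 50% inhibition of growth. TGI: total growth inhibition.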

How the values were obtained:
Test in all cases: DTP human tumour cell line panel, 48 h
[1] = tested on: 786-0 renal
[2] = tested on: BT-549 breast
[3] = tested on: DU-145 prostate
[4] = tested on: HCT-116 colon
[5] = tested on: LOX IMVI melanoma
[6] = tested on: MCF7 breast
[7] = tested on: OVCAR-8 ovarian
[8] = tested on: PC-3 prostate
[9] = tested on: SK-MEL-2 melanoma
[10] = tested on: UACC-62 melanoma

Row | SMILES | GI50 [1] | TGI [1] | GI50 [2] | TGI [2] | GI50 [3] | TGI [3] | GI50 [4] | TGI [4] | GI50 [5] | TGI [5] | GI50 [6] | TGI [6] | GI50 [7] | TGI [7] | GI50 [8] | TGI [8] | GI50 [9] | TGI [9] | GI50 [10] | TGI [10]
1 | Cn1cc(C2=C(c3c4n(c5ccccc35)CC(CN)C4)C(=O)NC2=O)c2ccccc21 (stereo unspecified) | 3.64 µM | 8.53 µM | 4.46 µM | 10.5 µM | 4.02 µM | 9.53 µM | 2.32 µM | 6.22 µM | 2.98 µM | 6.92 µM | 1.4 µM | 4.85 µM | 3.92 µM | 8.93 µM | 2.04 µM | 9.01 µM | 1.69 µM | 5.35 µM | 3.3 µM | 6.76 µM
2 | C=C1C(=O)O[C@H]2[C@H]1CC/C(COC(=O)/C=C\C(=O)NCc1ccc(Cn3c(=O)sn(-c4ccc(OC)cc4)c3=O)cc1)=C\CC[C@@]1(C)O[C@@H]21 | 0.665 µM | 1.37 µM | 0.562 µM | 1.29 µM | 0.694 µM | 1.36 µM | 0.171 µM | 0.755 µM | 0.36 µM | 1.09 µM | 0.292 µM | 1.17 µM | 0.755 µM | 2.62 µM | 0.542 µM | 1.32 µM | 0.882 µM | 1.94 µM | 0.7 µM | 1.41 µM
3 | CCCn1cc(C2=C(c3cn(C)c4ccccc34)C(=O)NC2=O)c2ccccc21 | 1.62 µM | > 25 µM | 1.36 µM | 5.95 µM | 1.34 µM | > 22.4 µM | 1.24 µM | 8.52 µM | 2.41 µM | 11.2 µM | 0.565 µM | > 16.2 µM | 2.01 µM | > 19.6 µM | 1.03 µM | > 25 µM | 0.702 µM | 3.24 µM | 1.63 µM | 5.94 µM
4 | CN(C)c1ccc(/C=C(\C#N)c2cc3ccccc3n2C)cc1 | 0.418 µM | > 100 µM | 0.618 µM | > 100 µM | 0.505 µM | > 100 µM | 0.101 µM | > 100 µM | 0.425 µM | > 100 µM | 0.0379 µM | > 100 µM | 0.405 µM | > 100 µM | 0.204 µM | > 100 µM | 0.328 µM | > 100 µM | 0.103 µM | > 100 µM
5 | CSC(=S)N/N=C/c1ccccc1 |  | > 100 µM |  | > 100 µM |  | > 100 µM |  | > 100 µM |  | > 100 µM |  | > 100 µM |  | > 100 µM |  | > 100 µM |  | > 100 µM |  | > 100 µM
6 | O=C(Nc1ncc(Cc2ccccc2)s1)c1ccc2c(c1)OCCO2 | 0.0562 µM | > 100 µM | 0.267 µM | > 100 µM | 0.0395 µM | > 100 µM | 0.0405 µM | > 100 µM | 0.0546 µM | > 74.3 µM | 0.0546 µM | > 100 µM | 0.0591 µM | > 100 µM | 0.0424 µM | > 100 µM | 0.101 µM | > 100 µM | 0.0465 µM | 12.3 µM
7 | Fc1ccc(CNc2c3ccccc3nc3ccccc23)cc1 | 3.02 µM | 11.7 µM | 4.66 µM | 18 µM | 3.18 µM | 11.3 µM | 2.12 µM | 11.8 µM | 1.55 µM | 3.07 µM | 1.79 µM | 4.97 µM | 2.64 µM | 12.5 µM | 3.11 µM | 16.8 µM | 2.39 µM | 6.01 µM | 2.58 µM | 9.13 µM
8 | NC(=O)c1nnn(Cc2cc(Cl)c(C(=O)c3ccc(Cl)cc3)c(Cl)c2)c1N | > 9.09 µM | > 9.09 µM and 43 µM |  | > 52.4 µM |  | > 53.5 µM | > 9.09 µM | > 9.09 µM and 35.2 µM | > 9.09 µM | > 47.2 µM |  | 32.9 µM | > 9.09 µM | > 9.09 µM and 40.8 µM |  | > 50.2 µM | > 9.09 µM | > 44 µM | > 9.09 µM | > 9.09 µM and 36.4 µM
9 | O=C1Nc2ccccc2C1(c1ccc(O)c(F)c1)c1ccc(O)c(F)c1 | 18.8 µM | 44.1 µM | 0.166 µM | 0.593 µM | 11.9 µM | 42.7 µM | 11.6 µM | 52.7 µM | 0.53 µM | 15.8 µM | 0.27 µM | 2.81 µM | 0.333 µM | 3.49 µM | 1.08 µM | 6.95 µM | 11.4 µM | 31.5 µM | 10.2 µM | 33.7 µM
10 | CC(=O)Oc1ccc2ccc(=O)oc2c1OC(C)=O |  | > 100 µM |  | > 100 µM |  | > 100 µM |  | > 100 µM |  | > 100 µM |  | > 100 µM |  | > 100 µM |  | > 100 µM |  | > 100 µM |  | > 100 µM
11 | C[N+](C)(C)CCC(=O)N1C/C(=C\c2ccccc2)C(=O)/C(=C/c2ccccc2)C1 |  | 5.46 µM |  | 4.95 µM |  | 30.6 µM |  | 2.98 µM |  | 3.46 µM |  | 3.31 µM |  | 8.44 µM |  | 6.97 µM |  | 30.1 µM |  | 10.3 µM
12 | O=C1Nc2cc(Cl)ccc2Oc2cc(Oc3ccccc3)ccc21 | 8.96 µM | 42.2 µM | 8.97 µM | 51.1 µM | 6.52 µM | 26.6 µM | 4.23 µM | 32 µM | 5.51 µM | > 100 µM | 3.39 µM | 18.3 µM | 8.81 µM | 78.4 µM | 4.85 µM | 48.4 µM | 4.99 µM | 35.7 µM | 4.15 µM | 91.3 µM
13 | COc1cc(C(=O)NC2CCN(C)CC2)ccc1Nc1ncc2c(n1)N(C1CCCC1)CC(F)(F)C(=O)N2C | 0.0903 µM | 6.87 µM | 0.0989 µM | 15.5 µM | < 0.01 µM | 0.0621 µM | < 0.0118 µM | 11.2 µM | < 0.0167 µM | 2.37 µM | < 0.01 µM | 10.5 µM | < 0.01 µM | 18.3 µM | < 0.0249 µM | 21.4 µM | 2.23 µM | 6.56 µM | < 0.0246 µM | 5.84 µM
14 | CCCCCCCCCCCCOC1C(CNC(=O)C2OC3OC(C)(C)OC3C2NC(=O)CN2CCN(c3ccccn3)CC2)OC2OC(C)(C)OC21 (stereo unspecified) | 1.79 µM | 3.22 µM | 1.83 µM | 3.39 µM | 1.68 µM | 3.04 µM | 1.61 µM | 3.04 µM | 1.88 µM | 3.53 µM | 1.94 µM | 4.58 µM | 1.62 µM | 3.15 µM | 1.75 µM | 3.24 µM | 1.65 µM | 3.32 µM | 1.61 µM | 3.05 µM
